Assay results: patent publication US10710986B2, “PD-1/PD-L1 inhibitors” (Gilead Sciences, Inc., priority 2018, dated 2020)

Target: PD-1/PD-L1 (Homo sapiens (Human), UniProt Q9NZQ7)
Assay: PD-1/PD-L1 biochemical protein-protein interaction assay (ALPHA)
Conditions: 0.3 nM His tagged PD-L1, 2.5 nM biotinylated Fc-PD-1, 60 minutes at 25° C., read-out: IC50 PD-L1-PD1

Sequence of PD-1/PD-L1 (Q9NZQ7 19-238): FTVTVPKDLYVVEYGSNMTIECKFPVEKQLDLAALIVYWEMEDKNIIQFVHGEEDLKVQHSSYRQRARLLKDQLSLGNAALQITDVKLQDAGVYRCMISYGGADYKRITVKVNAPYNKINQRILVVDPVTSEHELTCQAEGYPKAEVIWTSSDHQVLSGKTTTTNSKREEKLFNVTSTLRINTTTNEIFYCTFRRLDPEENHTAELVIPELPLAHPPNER

Row | SMILES | IC50 [nM]
1 | COCC1(CO)CCN(Cc2ncc(-c3cccc(-c4cccc(-c5cnc(CN6CCC(CO)(COC)C6)c(OC)n5)c4Cl)c3Cl)nc2OC)C1 (stereo not shown) [compound 460] | 0.157
2 | COc1nc(-c2cccc(-c3cccc(-c4cnc(CNC[C@@H]5CCC(=O)N5)c(OC)n4)c3Cl)c2Cl)cnc1CNCCc1nnc[nH]1 [compound 461] | 0.159
3 | COc1nc(-c2cccc(-c3cccc(-c4cnc(CN5CCC(c6nnc[nH]6)C5)c(OC)n4)c3Cl)c2Cl)cnc1CNC[C@@H]1CCC(=O)N1 (stereo partly shown) [compound 462] | 0.346
4 | COCC1(CO)CCN(Cc2ncc(-c3cccc(-c4cccc(-c5cnc(CNC[C@@H]6CCC(=O)N6)c(OC)n5)c4Cl)c3Cl)nc2OC)C1 (stereo partly shown) [compound 463] | 0.076
5 | COc1nc(-c2cccc(-c3cccc(-c4cnc(CN[C@H]5C[C@@H](C(N)=O)C5)c(OC)n4)c3Cl)c2Cl)cnc1CNC[C@@H]1CCC(=O)N1 [compound 464] | 0.11
6 | COc1nc(-c2cccc(-c3cccc(-c4cnc(CN[C@H]5C[C@H](C(N)=O)C5)c(OC)n4)c3Cl)c2Cl)cnc1CNC[C@@H]1CCC(=O)N1 [compound 465] | 0.158
7 | COc1nc(-c2cccc(-c3cccc(-c4cnc(CNC5CCN(C(N)=O)CC5)c(OC)n4)c3Cl)c2Cl)cnc1CNC1CCN(C(N)=O)CC1 [compound 466] | 0.073
8 | COc1nc(-c2cccc(-c3cccc(-c4cnc(CNCC5CCN(C(N)=O)C5)c(OC)n4)c3Cl)c2Cl)cnc1CNCC1CCN(C(N)=O)C1 (stereo not shown) [compound 467] | 0.146
9 | CNC(=O)C1CCN(Cc2ncc(-c3cccc(-c4cccc(-c5cnc(CC6CCN(C(=O)NC)C6)c(OC)n5)c4Cl)c3Cl)nc2OC)C1 (stereo not shown) [compound 468] | 0.123
10 | COc1nc(-c2cccc(-c3cccc(-c4cnc(CN[C@@H]5CCC5C)c(OC)n4)c3Cl)c2Cl)cnc1CNC[C@@H]1CCC(=O)N1 (stereo partly shown) [compound 469] | 0.26
11 | COc1nc(-c2cccc(-c3cccc(-c4cnc(CNC5CCN(C(N)=O)CC5)c(OC)n4)c3Cl)c2Cl)cnc1CNC[C@@H]1CCC(=O)N1 [compound 470] | 0.094
12 | COc1nc(-c2cccc(-c3cccc(-c4cnc(CNC[C@@H]5CCC(=O)N5)c(OC)n4)c3Cl)c2Cl)cnc1CNCC1CCN(C(N)=O)C1 (stereo partly shown) [compound 471] | 0.119
13 | CNC(=O)C1CCN(Cc2ncc(-c3cccc(-c4cccc(-c5cnc(CNC[C@@H]6CCC(=O)N6)c(OC)n5)c4Cl)c3Cl)nc2OC)C1 (stereo partly shown) [compound 472] | 0.066
14 | COc1nc(-c2cccc(-c3cccc(-c4cnc(CN[C@@H]5CCC(C(N)=O)C5)c(OC)n4)c3Cl)c2Cl)cnc1CNC[C@@H]1CCC(=O)N1 (stereo partly shown) [compound 473] | 0.093
15 | COc1nc(-c2cccc(-c3cccc(-c4cnc(CN5C6COCC5C6)c(OC)n4)c3Cl)c2Cl)cnc1CN1C2COCC1C2 [compound 474] | 0.219
16 | COc1nc(-c2cccc(-c3cccc(-c4cnc(CNC[C@H]5CNC(=O)C5)c(OC)n4)c3Cl)c2Cl)cnc1CNC[C@H]1CNC(=O)C1 [compound 475] | 0.162
17 | COc1nc(-c2cccc(-c3cccc(-c4cnc(CNC[C@H]5CCC[C@@H]5O)c(OC)n4)c3Cl)c2Cl)cnc1CNC[C@H]1CCC[C@@H]1O [compound 476] | 0.622
18 | COc1nc(-c2cccc(-c3cccc(-c4cnc(CN5CC6CC5(CO)C6)c(OC)n4)c3Cl)c2Cl)cnc1CN1CC2CC1(CO)C2 [compound 477] | 0.246
19 | COc1nc(-c2cccc(-c3cccc(-c4cnc(CN5CC(C(C)(C)O)C5)c(OC)n4)c3Cl)c2Cl)cnc1CN1CC(C(C)(C)O)C1 [compound 478] | 0.064
20 | COc1nc(-c2cccc(-c3cccc(-c4cnc(CNC[C@@H]5CNC(=O)C5)c(OC)n4)c3Cl)c2Cl)cnc1CNC[C@@H]1CNC(=O)C1 [compound 480] | 0.064
21 | COc1nc(-c2cccc(-c3cccc(-c4cnc(CNC[C@@H]5CCC(=O)N5)c(OC)n4)c3Cl)c2Cl)cnc1CNC[C@H]1CNC(=O)C1 [compound 481] | 0.227
22 | COc1nc(-c2cccc(-c3cccc(-c4cnc(CN5CC[C@]6(O)C[C@@H]6C5)c(OC)n4)c3Cl)c2Cl)cnc1CNC[C@@H]1CCC(=O)N1 [compound 482] | 0.108
